Like-named read-outs stand apart in the source and are kept apart here. Ends that are not written are not given here.

Consider five compounds from paper PMC10435460, “Ligand recognition and G protein coupling of the human itch receptor MRGPRX1” (Nature Communications, 2023).

The target of assay [1] is T1, MRGPRX1 (Homo sapiens, UniProt Q96LB2).
T1 construct: we fused a BRIL tag at the N-terminus of full-length wild-type MRGPRX1; FLAG; expressed in transfected cells; host or cells: HEK293
The assay can be described thus: Ligand bias factor (β value), Gi vs Gq, BAM8-22 as reference. The assay is classed as cell-based. The note with it: Suppl Fig 11f-h. The protocol: Human Embryonic Kidney 293 (HEK293) cells were obtained from the Cell Resource Center of Shanghai Institute for Biological Sciences (Chinese Academy of Sciences, Shanghai, China) and cultured in DMEM with 10% FBS for functional studies. Transient transfection in the current study was performed with Lipofectamine 2000 (Invitrogen), according to the manufacturer’s instructions. For studying the peptide-induced G-protein activation through MRGPRX1, G-protein BRET probes were generated according to previous publications[13],[30],[31]. HEK293 cells were transfected with plasmids MRGPRX1 and G-protein probes. After 24 h, cells were reseeded into a 96-well plate with a density of 30,000-50,000 cells per well and incubated for an additional 24 h at 37 °C. For peptide-stimulated activity measurement, the BRET signal between Rluc8 and GFP2 was recorded after the addition of peptide ligands (final concentration:10^−10 – 10^−3 M) and coelenterazine 400a. The BRET signal was calculated as the ratio of the GFP2 emission to the Rluc8 emission. […]
are presented as the mean ± SEM (n=3). All data were analyzed by two-sided one-way ANOVA with Turkey test. […] Both CNF-Tx2 and Chloroquine were assessed for Gi signaling (f) and Gq signaling (g). The bias factor (β value) of CNF-Tx2 and Chloroquine was calculated using BAM8-22 as the reference.
R3c). The β value was calculated according to formulas. […]

The target of assay [2] is T1, MRGPRX1. The assay is classed as cell-based. More on the design: Emax: unit not given here. The note with it: for Δpec50: Fig 3d, CNF-Tx2 mutant peptide vs CNF-Tx2 WT; for Emax: Suppl Fig 9a, CNF-Tx2 WT and mutant peptides. The protocol:
Human Embryonic Kidney 293 (HEK293) cells were obtained from the Cell Resource Center of Shanghai Institute for Biological Sciences (Chinese Academy of Sciences, Shanghai, China) and cultured in DMEM with 10% FBS for functional studies. Transient transfection in the current study was performed with Lipofectamine 2000 (Invitrogen), according to the manufacturer’s instructions. For studying the peptide-induced G-protein activation through MRGPRX1, G-protein BRET probes were generated according to previous publications[13],[30],[31]. HEK293 cells were transfected with plasmids MRGPRX1 and G-protein probes. After 24 h, cells were reseeded into a 96-well plate with a density of 30,000-50,000 cells per well and incubated for an additional 24 h at 37 °C. For peptide-stimulated activity measurement, the BRET signal between Rluc8 and GFP2 was recorded after the addition of peptide ligands (final concentration:10^−10 – 10^−3 M) and coelenterazine 400a. The BRET signal was calculated as the ratio of the GFP2 emission to the Rluc8 emission.

For assay [3], the system named is MRGPRX2. The assay can be described thus: Gαi-Gγ dissociation assay (BRET). It counts as cell-based, human. The note with it: Fig 1e. From the text:
Fig. 1 Cryo-EM structure of MRGPRX1-Gi1/Gq complexes. a Cryo-EM density map of the BAM8-22-MRGPRX1-Gi1/Gq complexes and CNF-Tx2-MRGPRX1-Gi1 complex. b EM density maps of BAM8-22 in MRGPRX1-Gi1/Gq complexes and CNF-Tx2 in MRGPRX1-Gi1 complex. BAM8-22 in MRGPRX1-Gi1/Gq complexes, hot pink/cyan; CNF-Tx2, light pink; MRGPRX1, cornflower blue, salmon, and medium aquamarine from left to right; Gαi, dark orange; Gαq, yellow; Gβ, wheat; Gγ, light blue; scFv16 (single-chain variable fragment), gray. c Cut-away view of the ligand-binding pocket in the BAM8-22-MRGPRX1-Gi1/Gq, CNF-Tx2-MRGPRX1-Gi1, PAMP-12-MRGPRX2-Gi1 and KCA-CB1-Gi1 complexes. d The binding modes of the peptide agonists of MRGPRX1 compared with MRGPRX2. e The selectivity of different ligands for MRGPRX1 and MRGPRX2 was evaluated using Gαi-Gγ dissociation assay. Data are mean ± SEM of three independent experiments (n = 3). ΔBRET indicates the difference between the BRET signal recorded from cells treated with ligand and that from cells treated with vehicle.
Human Embryonic Kidney 293 (HEK293) cells were obtained from the Cell Resource Center of Shanghai Institute for Biological Sciences (Chinese Academy of Sciences, Shanghai, China) and cultured in DMEM with 10% FBS for functional studies. […] The BRET signal was calculated as the ratio of the GFP2 emission to the Rluc8 emission.
A general note: Bioluminescence resonance energy transfer reports proximity on the nanometre scale.

T1 sequence (Q96LB2 whole entry, the tested form may be a part): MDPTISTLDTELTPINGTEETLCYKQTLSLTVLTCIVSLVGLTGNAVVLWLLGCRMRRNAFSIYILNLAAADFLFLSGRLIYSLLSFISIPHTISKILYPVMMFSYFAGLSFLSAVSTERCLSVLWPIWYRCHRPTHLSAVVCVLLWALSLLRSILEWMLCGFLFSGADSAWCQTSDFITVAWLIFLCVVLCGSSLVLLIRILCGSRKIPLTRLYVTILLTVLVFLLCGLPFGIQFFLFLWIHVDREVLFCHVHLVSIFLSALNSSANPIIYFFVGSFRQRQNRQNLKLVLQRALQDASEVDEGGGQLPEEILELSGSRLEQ

Consider `CCN(CC)CCCC(C)Nc1ccnc2cc(Cl)ccc12` (stereo not shown) [Chloroquine, chloroquine], for which the “bias property, Gi vs Gq” value in assay [1] is on record as “Gq bias ligand”.
Consider “HSGILLAWSGPRNRAVRI-NH2 (C-terminus assumed) [F15A]”, for which the Δpec50 is -6.871 in assay [2] (replicate 2) and -1.837 in assay [2] (replicate 3). The Emax is listed as -0.06154 in assay [2] (replicate 1) and -0.06172 in assay [2] (replicate 3).
As for “HSGILLAWSGPRNRF-NH2 (C-terminus assumed) [ΔVRI]”, the results for the Δpec50 in assay [2] (replicate 2) and in assay [2] (replicate 3) were -0.3933 and -0.1993, respectively. Moreover, the Emax was 5.805 in assay [2] (replicate 1), 0.1588 in assay [2] (replicate 2) and -0.003279 in assay [2] (replicate 3). For the same compound, the “effect of C-terminal truncation on MRGPRX1 activity” value in assay [2] (compared to CNF-Tx2 wide-type peptide, Fig R4) is “almost abolished the activity of MRGPRX1”.
On to “Hemoglobin b-chain(34-42): hemoglobin β-chain fragment, peptide ligand of MRGPRX1 (VVYPWTQRF; UniProt P68871 34-42, looked up, fragment) [reference compound]”, for which, in assay [2] (Suppl Fig 11c), the “potency and efficacy at MRGPRX1” value was “reasonable potency and efficacy”.
For “bovine adrenal medulla peptide (BAM) 8-22 [BAM8-22]”, the “recognition by MRGPRX2” value in assay [3] is “cannot be recognized by MRGPRX2”.
